Test results from ChEMBL document CHEMBL1138574, “Regioselective synthesis and stereochemical structure of anti-tumor active dispiro[3H-indole-3,2'-pyrrolidine-3',3''-piperidine]-2(1H),4''-diones” (2009).

System: A549
Experiment: Antitumor activity against human A549 cells assessed as cell growth at 10 uM after 48 hrs by sulforhodamine B assay
Assay type: functional
Conditions: A549, 48 h, read-out: Activity

SMILES	growth at 10 µM
CN1C/C(=C\c2ccc(Cl)cc2)C(=O)[C@]2(C1)[C@@H](c1ccc(Cl)cc1)CN(C)[C@@]21C(=O)Nc2ccccc21	62.4%

System: HOP-92
Experiment: Antitumor activity against human HOP92 cells assessed as cell growth at 10 uM after 48 hrs by sulforhodamine B assay
Assay type: functional
Conditions: HOP-92, 48 h, read-out: Activity

SMILES	growth at 10 µM
CN1C/C(=C\c2ccc(Cl)cc2)C(=O)[C@]2(C1)[C@@H](c1ccc(Cl)cc1)CN(C)[C@@]21C(=O)Nc2ccccc21	56.2%

System: NCI-H226
Experiment: Antitumor activity against human NCI-H226 cells assessed as cell growth at 10 uM after 48 hrs by sulforhodamine B assay
Assay type: functional
Conditions: NCI-H226, 48 h, read-out: Activity

SMILES	growth at 10 µM
CN1C/C(=C\c2ccc(Cl)cc2)C(=O)[C@]2(C1)[C@@H](c1ccc(Cl)cc1)CN(C)[C@@]21C(=O)Nc2ccccc21	64.4%

System: NCI-H23
Experiment: Antitumor activity against human NCI-H23 cells assessed as cell growth at 10 uM after 48 hrs by sulforhodamine B assay
Assay type: functional
Conditions: NCI-H23, 48 h, read-out: Activity

SMILES	growth at 10 µM
CN1C/C(=C\c2ccc(Cl)cc2)C(=O)[C@]2(C1)[C@@H](c1ccc(Cl)cc1)CN(C)[C@@]21C(=O)Nc2ccccc21	44.8%

System: NCI-H460
Experiment: Antitumor activity against human NCI-H460 cells assessed as cell growth at 10 uM after 48 hrs by sulforhodamine B assay
Assay type: functional
Conditions: NCI-H460, 48 h, read-out: Activity

SMILES	growth at 10 µM
CN1C/C(=C\c2ccc(Cl)cc2)C(=O)[C@]2(C1)[C@@H](c1ccc(Cl)cc1)CN(C)[C@@]21C(=O)Nc2ccccc21	66.7%

System: KM12
Experiment: Antitumor activity against human KM12 cells assessed as cell growth at 10 uM after 48 hrs by sulforhodamine B assay
Assay type: functional
Conditions: KM12, 48 h, read-out: Activity

SMILES	growth at 10 µM
CN1C/C(=C\c2ccc(Cl)cc2)C(=O)[C@]2(C1)[C@@H](c1ccc(Cl)cc1)CN(C)[C@@]21C(=O)Nc2ccccc21	64.2%

System: SW-620
Experiment: Antitumor activity against human SW620 cells assessed as cell growth at 10 uM after 48 hrs by sulforhodamine B assay
Assay type: functional
Conditions: SW-620, 48 h, read-out: Activity

SMILES	growth at 10 µM
CN1C/C(=C\c2ccc(Cl)cc2)C(=O)[C@]2(C1)[C@@H](c1ccc(Cl)cc1)CN(C)[C@@]21C(=O)Nc2ccccc21	57.7%

System: not listed separately
Experiment: Antitumor activity against human Hs 578T cells assessed as cell growth at 10 uM after 48 hrs by sulforhodamine B assay
Assay type: functional
Conditions: read-out: Activity

SMILES	growth at 10 µM
CN1C/C(=C\c2ccc(Cl)cc2)C(=O)[C@]2(C1)[C@@H](c1ccc(Cl)cc1)CN(C)[C@@]21C(=O)Nc2ccccc21	79.7%

System: MCF7
Experiment: Antitumor activity against human MCF7 cells assessed as cell growth at 10 uM after 48 hrs by sulforhodamine B assay
Assay type: functional
Conditions: MCF7, 48 h, read-out: Activity

SMILES	growth at 10 µM
CN1C/C(=C\c2ccc(Cl)cc2)C(=O)[C@]2(C1)[C@@H](c1ccc(Cl)cc1)CN(C)[C@@]21C(=O)Nc2ccccc21	44.9%

System: NCI/ADR-RES
Experiment: Antitumor activity against human NCI/ADR-RES cells assessed as cell growth at 10 uM after 48 hrs by sulforhodamine B assay
Assay type: functional
Conditions: read-out: Activity

SMILES	growth at 10 µM
CN1C/C(=C\c2ccc(Cl)cc2)C(=O)[C@]2(C1)[C@@H](c1ccc(Cl)cc1)CN(C)[C@@]21C(=O)Nc2ccccc21	62.1%

System: OVCAR-4
Experiment: Antitumor activity against human OVCAR4 cells assessed as cell growth at 10 uM after 48 hrs by sulforhodamine B assay
Assay type: functional
Conditions: OVCAR-4, 48 h, read-out: Activity

SMILES	growth at 10 µM
CN1C/C(=C\c2ccc(Cl)cc2)C(=O)[C@]2(C1)[C@@H](c1ccc(Cl)cc1)CN(C)[C@@]21C(=O)Nc2ccccc21	49.6%

System: OVCAR-5
Experiment: Antitumor activity against human OVCAR5 cells assessed as cell growth at 10 uM after 48 hrs by sulforhodamine B assay
Assay type: functional
Conditions: OVCAR-5, 48 h, read-out: Activity

SMILES	growth at 10 µM
CN1C/C(=C\c2ccc(Cl)cc2)C(=O)[C@]2(C1)[C@@H](c1ccc(Cl)cc1)CN(C)[C@@]21C(=O)Nc2ccccc21	94.2%

System: OVCAR-8
Experiment: Antitumor activity against human OVCAR8 cells assessed as cell growth at 10 uM after 48 hrs by sulforhodamine B assay
Assay type: functional
Conditions: OVCAR-8, 48 h, read-out: Activity

SMILES	growth at 10 µM
CN1C/C(=C\c2ccc(Cl)cc2)C(=O)[C@]2(C1)[C@@H](c1ccc(Cl)cc1)CN(C)[C@@]21C(=O)Nc2ccccc21	69.4%

System: SK-OV-3
Experiment: Antitumor activity against human SKOV3 cells assessed as cell growth at 10 uM after 48 hrs by sulforhodamine B assay
Assay type: functional
Conditions: SK-OV-3, 48 h, read-out: Activity

SMILES	growth at 10 µM
CN1C/C(=C\c2ccc(Cl)cc2)C(=O)[C@]2(C1)[C@@H](c1ccc(Cl)cc1)CN(C)[C@@]21C(=O)Nc2ccccc21	80.6%

System: HL-60(TB)
Experiment: Antitumor activity against human HL-60(TB) cells assessed as cell growth at 10 uM after 48 hrs by sulforhodamine B assay
Assay type: functional
Conditions: HL-60, 48 h, read-out: Activity

SMILES	growth at 10 µM
CN1C/C(=C\c2ccc(Cl)cc2)C(=O)[C@]2(C1)[C@@H](c1ccc(Cl)cc1)CN(C)[C@@]21C(=O)Nc2ccccc21	41.6%

System: MOLT-4
Experiment: Antitumor activity against human MOLT4 cells assessed as cell growth at 10 uM after 48 hrs by sulforhodamine B assay
Assay type: functional
Conditions: MOLT-4, 48 h, read-out: Activity

SMILES	growth at 10 µM
CN1C/C(=C\c2ccc(Cl)cc2)C(=O)[C@]2(C1)[C@@H](c1ccc(Cl)cc1)CN(C)[C@@]21C(=O)Nc2ccccc21	37.4%

System: not listed separately
Experiment: Antitumor activity against human […] cells assessed as cell growth at 10 uM after 48 hrs by sulforhodamine B assay
Assay type: functional
Conditions: read-out: Activity

SMILES	growth at 10 µM
CN1C/C(=C\c2ccc(Cl)cc2)C(=O)[C@]2(C1)[C@@H](c1ccc(Cl)cc1)CN(C)[C@@]21C(=O)Nc2ccccc21	38.5%

System: 786-0
Experiment: Antitumor activity against human 786-0 cells assessed as cell growth at 10 uM after 48 hrs by sulforhodamine B assay
Assay type: functional
Conditions: 786-0, 48 h, read-out: Activity

SMILES	growth at 10 µM
CN1C/C(=C\c2ccc(Cl)cc2)C(=O)[C@]2(C1)[C@@H](c1ccc(Cl)cc1)CN(C)[C@@]21C(=O)Nc2ccccc21	71.8%

System: A498
Experiment: Antitumor activity against human A498 cells assessed as cell growth at 10 uM after 48 hrs by sulforhodamine B assay
Assay type: functional
Conditions: A498, 48 h, read-out: Activity

SMILES	growth at 10 µM
CN1C/C(=C\c2ccc(Cl)cc2)C(=O)[C@]2(C1)[C@@H](c1ccc(Cl)cc1)CN(C)[C@@]21C(=O)Nc2ccccc21	55.3%

System: RXF 393
Experiment: Antitumor activity against human RXF393 cells assessed as cell growth at 10 uM after 48 hrs by sulforhodamine B assay
Assay type: functional
Conditions: RXF 393, 48 h, read-out: Activity

SMILES	growth at 10 µM
CN1C/C(=C\c2ccc(Cl)cc2)C(=O)[C@]2(C1)[C@@H](c1ccc(Cl)cc1)CN(C)[C@@]21C(=O)Nc2ccccc21	67.5%

System: SN12C
Experiment: Antitumor activity against human SN12C cells assessed as cell growth at 10 uM after 48 hrs by sulforhodamine B assay
Assay type: functional
Conditions: read-out: Activity

SMILES	growth at 10 µM
CN1C/C(=C\c2ccc(Cl)cc2)C(=O)[C@]2(C1)[C@@H](c1ccc(Cl)cc1)CN(C)[C@@]21C(=O)Nc2ccccc21	64.1%

System: TK-10
Experiment: Antitumor activity against human TK10 cells assessed as cell growth at 10 uM after 48 hrs by sulforhodamine B assay
Assay type: functional
Conditions: TK-10, 48 h, read-out: Activity

SMILES	growth at 10 µM
CN1C/C(=C\c2ccc(Cl)cc2)C(=O)[C@]2(C1)[C@@H](c1ccc(Cl)cc1)CN(C)[C@@]21C(=O)Nc2ccccc21	88.6%

System: UO-31
Experiment: Antitumor activity against human UO31 cells assessed as cell growth at 10 uM after 48 hrs by sulforhodamine B assay
Assay type: functional
Conditions: UO-31, 48 h, read-out: Activity

SMILES	growth at 10 µM
CN1C/C(=C\c2ccc(Cl)cc2)C(=O)[C@]2(C1)[C@@H](c1ccc(Cl)cc1)CN(C)[C@@]21C(=O)Nc2ccccc21	43.2%

System: LOX IMVI
Experiment: Antitumor activity against human LOXIMVI cells assessed as cell growth at 10 uM after 48 hrs by sulforhodamine B assay
Assay type: functional
Conditions: read-out: Activity

SMILES	growth at 10 µM
CN1C/C(=C\c2ccc(Cl)cc2)C(=O)[C@]2(C1)[C@@H](c1ccc(Cl)cc1)CN(C)[C@@]21C(=O)Nc2ccccc21	72.3%

System: M14
Experiment: Antitumor activity against human M14 cells assessed as cell growth at 10 uM after 48 hrs by sulforhodamine B assay
Assay type: functional
Conditions: M14, 48 h, read-out: Activity

SMILES	growth at 10 µM
CN1C/C(=C\c2ccc(Cl)cc2)C(=O)[C@]2(C1)[C@@H](c1ccc(Cl)cc1)CN(C)[C@@]21C(=O)Nc2ccccc21	78.3%

System: SK-MEL-28
Experiment: Antitumor activity against human SK-MEL-28 cells assessed as cell growth at 10 uM after 48 hrs by sulforhodamine B assay
Assay type: functional
Conditions: SK-MEL-28, 48 h, read-out: Activity

SMILES	growth at 10 µM
CN1C/C(=C\c2ccc(Cl)cc2)C(=O)[C@]2(C1)[C@@H](c1ccc(Cl)cc1)CN(C)[C@@]21C(=O)Nc2ccccc21	101%

System: UACC-257
Experiment: Antitumor activity against human UACC257 cells assessed as cell growth at 10 uM after 48 hrs by sulforhodamine B assay
Assay type: functional
Conditions: UACC-257, 48 h, read-out: Activity

SMILES	growth at 10 µM
CN1C/C(=C\c2ccc(Cl)cc2)C(=O)[C@]2(C1)[C@@H](c1ccc(Cl)cc1)CN(C)[C@@]21C(=O)Nc2ccccc21	79.3%

System: UACC-62
Experiment: Antitumor activity against human UACC62 cells assessed as cell growth at 10 uM after 48 hrs by sulforhodamine B assay
Assay type: functional
Conditions: UACC-62, 48 h, read-out: Activity

SMILES	growth at 10 µM
CN1C/C(=C\c2ccc(Cl)cc2)C(=O)[C@]2(C1)[C@@H](c1ccc(Cl)cc1)CN(C)[C@@]21C(=O)Nc2ccccc21	67.2%

System: PC-3
Experiment: Antitumor activity against human PC3 cells assessed as cell growth at 10 uM after 48 hrs by sulforhodamine B assay
Assay type: functional
Conditions: PC-3, 48 h, read-out: Activity

SMILES	growth at 10 µM
CN1C/C(=C\c2ccc(Cl)cc2)C(=O)[C@]2(C1)[C@@H](c1ccc(Cl)cc1)CN(C)[C@@]21C(=O)Nc2ccccc21	24.9%

System: SF-268
Experiment: Antitumor activity against human SF268 cells assessed as cell growth at 10 uM after 48 hrs by sulforhodamine B assay
Assay type: functional
Conditions: SF-268, 48 h, read-out: Activity

SMILES	growth at 10 µM
CN1C/C(=C\c2ccc(Cl)cc2)C(=O)[C@]2(C1)[C@@H](c1ccc(Cl)cc1)CN(C)[C@@]21C(=O)Nc2ccccc21	60.6%

System: SF-539
Experiment: Antitumor activity against human SF539 cells assessed as cell growth at 10 uM after 48 hrs by sulforhodamine B assay
Assay type: functional
Conditions: SF-539, 48 h, read-out: Activity

SMILES	growth at 10 µM
CN1C/C(=C\c2ccc(Cl)cc2)C(=O)[C@]2(C1)[C@@H](c1ccc(Cl)cc1)CN(C)[C@@]21C(=O)Nc2ccccc21	83.3%

System: SNB-19
Experiment: Antitumor activity against human SNB19 cells assessed as cell growth at 10 uM after 48 hrs by sulforhodamine B assay
Assay type: functional
Conditions: SNB-19, 48 h, read-out: Activity

SMILES	growth at 10 µM
CN1C/C(=C\c2ccc(Cl)cc2)C(=O)[C@]2(C1)[C@@H](c1ccc(Cl)cc1)CN(C)[C@@]21C(=O)Nc2ccccc21	76.5%

System: SNB-75
Experiment: Antitumor activity against human SNB75 cells assessed as cell growth at 10 uM after 48 hrs by sulforhodamine B assay
Assay type: functional
Conditions: SNB-75, 48 h, read-out: Activity

SMILES	growth at 10 µM
CN1C/C(=C\c2ccc(Cl)cc2)C(=O)[C@]2(C1)[C@@H](c1ccc(Cl)cc1)CN(C)[C@@]21C(=O)Nc2ccccc21	56.7%

System: U-251
Experiment: Antitumor activity against human U251 cells assessed as cell growth at 10 uM after 48 hrs by sulforhodamine B assay
Assay type: functional
Conditions: U-251, 48 h, read-out: Activity

SMILES	growth at 10 µM
CN1C/C(=C\c2ccc(Cl)cc2)C(=O)[C@]2(C1)[C@@H](c1ccc(Cl)cc1)CN(C)[C@@]21C(=O)Nc2ccccc21	64.8%

System: Rattus norvegicus
Experiment: Antiinflammatory activity in Wister albino rat assessed as inhibition of carrageenan-induced paw oedema at 50 mg/kg, ip administered 1 hr before carrageenan challenge measured after 4 hrs of induction of inflammation relative to control
Assay type: functional
Conditions: route intraperitoneal

SMILES	inhibition in vivo at 50 mg/kg
CN1C/C(=C\c2ccc(Cl)cc2)C(=O)[C@]2(C1)[C@@H](c1ccc(Cl)cc1)CN(C)[C@@]21C(=O)Nc2ccccc21	42.2%

System: Rattus norvegicus
Experiment: Antiinflammatory activity in Wister albino rat assessed as inhibition of carrageenan-induced paw oedema at 50 mg/kg, ip administered 1 hr before carrageenan challenge measured after 4 hrs of induction of inflammation relative to indomethacin
Assay type: functional
Conditions: route intraperitoneal

SMILES	inhibition in vivo at 50 mg/kg
CN1C/C(=C\c2ccc(Cl)cc2)C(=O)[C@]2(C1)[C@@H](c1ccc(Cl)cc1)CN(C)[C@@]21C(=O)Nc2ccccc21	74.7%
